Values of other authors in patent publication US20230157303A1, “Plant-Based Pesticide” (priority 2022, published 2023).

Assays:
Conditions in all cases: in vivo
[1] = tested on: aquatic wildlife
[2] = tested on: humans and other mammals
[3] = tested on: honeybees

## CC1(C)C(C=C(Cl)Cl)C1C(=O)OC(C#N)c1cccc(Oc2ccccc2)c1 (centres unmarked) [Cypermethrin]
[1]
  toxicity to aquatic wildlife: highly toxic
[2]
  toxicity to humans and other mammals: acutely toxic
[3]
  toxicity to honeybees: very highly toxic

## CCOP(=S)(OCC)Oc1cc(C)nc(C(C)C)n1 [diazinon, Diazinon]
[3]
  toxicity to honeybees: toxic

## CCOC(=O)CC(SP(=S)(OC)OC)C(=O)OCC (centres unmarked) [malathion, Malathion]
[3]
  toxicity to honeybees: toxic
